Data on 1 molecule can be found in US11668702B2, “Regulation of fungal fruiting body development” (The Chinese University of Hong Kong, priority 2017, dated 2023).

Experiment [1] relates to C. cinerea. Nature of the experiment: C. cinerea fruiting body development, solution spread on YMG agar surface before inoculation (Example 5). In kind it is cell-based, Coprinopsis cinerea. The following applies: for Fruiting body development stage reached: 5 days light/dark cycle at 25° C. As for the experimental part: FIG. 9: Effect on C. cinerea fruiting body development by GSK3 inhibitor-LiCl at different concentration. Water or LiCl solution was spread on the surface of YMG agar, before inoculation. After 6-days all dark incubation in 37° C., the plates were transferred to 25° C. with 12-hours light and 12-hours dark cycle (light/dark cycle) for 5-days incubation. […] Initials and hyphal knots formed on the plates treated with 0.75 g/L and 1.5 g/L LiCl respectively.
FIG. 10: Effect on C. cinerea fruiting body development by GSK3 inhibitor-CHIR-99021 HCl at different concentration. Water or CHIR-99021 HCl solution was spread on the surface of YMG agar, before inoculation. After the mycelium reached the edge of plates, the plates were transferred to 25° C. with light/dark cycle for 6-days incubation.
FIG. 11: Effect on C. cinerea fruiting body development by GSK3 activator-Cisplatin at different concentration. Water or Cisplatin solution was spread on the surface of YMG agar, before inoculation. After the mycelium reached the edge of plates, the plates were transferred to 25° C. with light/dark cycle. […] Young fruiting body developed on the control YMG plates treated with water.
Two GSK3 inhibitors (LiCl and CHIR-99021 HCl) and one GSK3 activator (Cisplatin) were tested in Coprinopsis cinerea, and one GSK3 inhibitor (LiCl) was tested in Pleurotus djamor (commonly known as the pink oyster mushroom). Belonging to the same order Agaricales, these two tested mushroom species are of two different families, Psathyrellaceae and Pleurotaceae, respectively.
Water or LiCl solution was spread on the surface of YMG agar before inoculation of C. cinerea. After 6-days all dark incubation in 37° C., the plates were transferred to 25° C. with 12-hours light and 12-hours dark cycle (light/dark cycle) for 5-days incubation. […] Initials and hyphal knots were formed on the plates treated with 0.75 g/L and 1.5 g/L LiCl respectively.
Water or CHIR-99021 HCl solution was spread on the surface of YMG agar before inoculation of C. cinerea. After the mycelium reached the edge of plates, the plates were transferred to 25° C. with light/dark cycle for 6-days incubation.
Water or Cisplatin solution was spread on the surface of YMG agar before C. cinerea inoculation. After the mycelium reached the edge of plates, the plates were transferred to 25° C. with light/dark cycle. […] Young fruiting body developed on the control YMG plates treated with water.

Experiment [2] deals with C. cinerea. Nature of the experiment: Mycelial growth rate of LiCl treated C. cinerea on YMG agar. In kind it is cell-based, Coprinopsis cinerea. As for the experimental part: FIG. 3: Mycelial growth of C. cinerea with different doses of LiCl, biological triplicates were used for mean calculation.
The mycelial growth rate was measured for the LiCl treated C. cinerea. Biological triplicates were cultivated on YMG agar plates at 37° C. in darkness, treated with different doses of LiCl. The mycelium growth was recorded for 4 days.

In experiment [3] the test system is GSK-3 and its target genes. Nature of the experiment: Quantitative real-time PCR of GSK-3 and its target genes under LiCl treatment. In kind it is cell-based, Coprinopsis cinerea. As for the experimental part:
FIG. 6: The gene expression levels are indicated by the abundance of segments on the cDNA, by real-time PCR. […] Glycogen synthase (CC1G_01973); GSK-3 protein kinase (CC1G_03802); eukaryotic translation initiation factor 1 (CC1G_03881); Uncharacterized protein with Ricin B-type lectin domain (CC1G_05298); Translation initiation factor eIF2 gamma subunit (CC1G_09429).
The expression levels of targets genes of GSK-3 were measured to explore the mechanism of LiCl. To characterize the gene expression profile changes, quantitative real-time PCR analysis was performed. the kinase and its substrates by Orthologue searching were selected. A total of 83 GSK-3 substrates reported in human and mouse were mapped to the C. cinerea genome, and 52 orthologues were identified. Among them, CC1G_01973, CC1G_03881, and CC1G_09429 were selected for real-time PCR analysis. Samples treated by different doses of LiCl were frozen and homogenized in liquid nitrogen to extract total RNAs. […] Decreased eIF1 gene expression supports that LiCl block the fruiting through inhibiting GSK-3 activity in initiating the translation of key protein. Binding of eIF1 to 40S ribosome is key to maintain an open conformation on 40S ribosomal subunit to initiate translation (Passmore et al. 2007). Low level of eIF1 was also found to lower mRNA translation in Saccharomyces cerevisiae (You et al. 2010).
A general note: In qPCR the cycle at which signal appears reflects the starting amount.

In experiment [4] the test system is C. cinerea. Nature of the experiment: LiCl added at different developmental stages of C. cinerea. In kind it is cell-based, Coprinopsis cinerea. How it is done: FIG. 4: The development of C. cinerea treated with 0.1 ml of 3 g/L LiCl at different stage.
FIG. 5: Life cycle of the mushroom-forming fungi, and the sensitive windows to the GSK-3 inhibitors (stages in grey). […] These stages are sensitive windows.
The effect of LiCl at different developmental stages of C. cinerea were tested. 0.1 ml of 3 g/L LiCl were added to the agar plate.

The subject of experiment [5] is C. cinerea. Nature of the experiment: LiCl clearance and fruiting body formation (Example 3). Type of experiment: cell-based, Coprinopsis cinerea. The following applies: washing mycelium and substrate with ddH2O or transfer onto clean substrate. The text has this:
The LiCl inhibition of C. cinerea mycelium can be relieved by removing LiCl or diluting the concentration of LiCl, for example, by washing the mycelium and substrate with ddH2O, or by transferring the mycelium onto a clean substrate.

In experiment [6] the test system is Pleurotus djamor. Nature of the experiment: Pleurotus djamor fruiting body development, LiCl in YMG agar. Type of experiment: cell-based. Conditions: 2 g/L LiCl in YMG agar; 10 days dark at 27° C., 10 days light/dark cycle at 25° C. How it is done:
FIG. 12: Effect on Pleurotus djamor fruiting body development by GSK3 inhibitor-LiCl at different concentration. LiCl was added to YMG agar medium before autoclave. After 10-days all dark incubation in 27° C., the plates were transferred to 25° C. with 12-hours light and 12-hours dark cycle (light/dark cycle) for 10-days incubation. Mature fruiting bodies developed on the control plates.
LiCl was added to YMG agar medium before autoclave. After 10-days all dark incubation in 27° C., the plates were transferred to 25° C. with 12-hours light and 12-hours dark cycle (light/dark cycle) for 10-days incubation. Mature fruiting bodies developed on the control plates.

[7] abbreviates: different doses of LiCl, real-time PCR.

The structures appear in SMILES notation. Entries after “also recorded” stand apart in the source; their conditions may differ.

As to `[Cl-].[Li+]` [LiCl, Lithium chloride], the “Fruiting body development stage reached” value in experiment [1] (0.375 g/L LiCl) is “Primordium were formed”; in experiment [1] (0.75 g/L LiCl) it was “Initials”; in experiment [1] (1.5 g/L LiCl), “hyphal knots”; in experiment [1] (3 g/L LiCl), “arrested in mycelium stage”; in experiment [1] (6 g/L LiCl), “arrested in mycelium stage”. The “Mycelium growth on plate” value in experiment [1] (6 g/L LiCl) is “stopped before reaching the edge of plates”. Further, the “Effect on Mycelium growth” value in experiment [2] (1.5 g/L LiCl in agar) is given as “higher than control; also recorded: Acceleration”; in experiment [2] (3 g/L LiCl in agar), “higher than control; also recorded: acceleration in mycelium growth rate”; in experiment [2] (6 g/L LiCl in agar), “inhibit the growth of mycelium; also recorded: Retarded”. The GSK-3 gene expression entry in experiment [3] (3 g/L LiCl mixed in the substrate) is given as “general decrease in GSK-3 gene expression”. For the same molecule, the “Expression level of GSK-3 gene and selected GSK-3 target genes” value in experiment [3] (setting [7]) is “could regulate the expression; also recorded: change the expression level”. Further, in experiment [3] (setting [7]), the eIF1 gene expression result is listed as “decreased with increase of LiCl concentration”. For the same molecule, the “Further development after LiCl addition” value in experiment [4] (0.1 ml of 3 g/L LiCl added at initial) is on record as “led to the arrest of their development; also recorded: led to inhibition on further development; also recorded: resulted in arrestment in fruiting body development”; in experiment [4] (0.1 ml of 3 g/L LiCl added at stage-1 primordium) it was “led to the arrest of their development; also recorded: led to inhibition on further development; also recorded: resulted in arrestment in fruiting body development”; in experiment [4] (0.1 ml of 3 g/L LiCl added at stage-2 primordium) it was “could continue to develop into fruiting bodies; also recorded: cannot inhibit the fruiting body development”; in experiment [4] (0.1 ml of 3 g/L LiCl added at young fruiting body), “could continue to develop into fruiting bodies; also recorded: cannot inhibit the fruiting body development”; in experiment [4] (LiCl intervention at hyphal knot), “resulted in arrestment in fruiting body development”; in experiment [4] (LiCl intervention at mycelium) it was “resulted in arrestment in fruiting body development”. Further, the “Fruiting after removing or diluting LiCl” value in experiment [5] is “fruiting bodies develops again”. Further, the Fruiting body development entry in experiment [6] is recorded as “failed to develop fruiting body”.
